Test results from patent US11382894B2, “Pharmaceutical compositions for use in the treatment of cardiovascular calcification” (INSERM (INSTITUT NATIONAL DE LA SANTE ET DE LA RECHERCHE …, priority 2017, dated 2022).

What was measured:
Rat aortic rings = assay: Calcium content of rat aortic rings cultured ex vivo in procalcifying conditions (O-Cresolphthalein colorimetric assay); type: cell-based; conditions: Pi 3.8 mM, 7 days; for Effect on calcium content of rat aortas (in words): procalcifying conditions; for Aortic calcium content: Pi alone = 100%
Procedure: Materials and methods: Rat aortic rings were cultured in procalcifying conditions using inorganic phosphate (Pi: 3.8 mM) for 7 days. […] Rat aortic calcium content was determined using a calcium colorimetric assay with O-Cresolphthalein.
(§1) Materials and methods: Rat aortic rings were cultured in procalcifying conditions using inorganic phosphate (Pi: 3.8 mM) for 7 days. N-acetyl-S-farnesyl-L-cysteine (AFC)—sEH phosphatase domain inhibitor—was added at concentrations, ranging from 0.1 to 10 μM (n=4-21 per group). Rat aortic calcium content was determined using a calcium colorimetric assay with O-Cresolphthalein.
Materials and methods: Rat aortic rings were cultured in procalcifying conditions using inorganic phosphate (Pi: 3.8 mM) for 7 days in absence and in presence of ebselen at a concentration of 1 and 10 μM (n=6-8 per group).

[1] = test system: Human valvular interstitial cells (VICs); assay: Calcium content of human valvular interstitial cells cultured in procalcifying conditions (O-Cresolphthalein colorimetric assay); type: cell-based; conditions: Pi 3 mM; for VICs calcium content: mean±SEM; for Effect on calcium content of valvular interstitial cells (in words): procalcifying conditions
Procedure: as §1, with “Human valvular interstitial cells (VICs)” for “Rat aortic rings”, “3” for “3.8”, “14” for “7”, “5” for “10”, “(n=5-6” for “(n=4-21”, “VICs” for “Rat”
Materials and methods: Human valvular interstitial cells (VICs) were cultured in procalcifying conditions using inorganic phosphate (Pi: 3 mM) for 10 days. Ebselen—sEH phosphatase domain inhibitor—was added at the concentrations of 0.1 and 1 μM (n=4 per group). VICs aortic calcium content was determined using a calcium colorimetric assay with O-Cresolphthalein.

[2] = rat aortic rings, compound 1 μM
[3] = rat aortic rings, compound 10 μM

Row | Structure (SMILES) | Effect on calcium content of rat aortas (in words) (Rat aortic rings) | Alizarin Red and VonKossa histochemical staining (Rat aortic rings; rat aortic rings) | Aortic calcium content (Rat aortic rings; rat aortic rings, compound 0.1 μM) [%] | Aortic calcium content (Rat aortic rings; [2]) [%] | Aortic calcium content (Rat aortic rings; [3]) [%] | Alizarin Red staining ([1]; human VICs, 14 days) | VICs calcium content ([1]; human VICs, 14 days, compound 0.1 μM, Pi alone 90.3±4.6 μg) [µg] | VICs calcium content ([1]; human VICs, 14 days, compound 1 μM, Pi alone 90.3±4.6 μg) [µg] | VICs calcium content ([1]; human VICs, 14 days, compound 5 μM, Pi alone 90.3±4.6 μg) [µg] | Effect on calcium content of valvular interstitial cells (in words) ([1]; 14 days) | VICs calcium content ([1]; human VICs, 10 days, compound 0.1 μM, Pi alone = 100%) [%] | VICs calcium content ([1]; human VICs, 10 days, compound 1 μM, Pi alone = 100%) [%] | Effect on calcium content of valvular interstitial cells (in words) ([1]; 10 days)
1 | CC(=O)N[C@@H](CSC/C=C(\C)CC/C=C(\C)CCC=C(C)C)C(=O)O [AFC, N-acetyl-S-farnesyl-L-cysteine] | dose-dependently reduces | confirmed these results | 83.6±9.1 | 74.2±2.9 | 54.5±12 | confirmed these results | 76.7 ± 5.7 | 51.1 ± 2.9 | 45.8 ± 2 | dose-dependently reduces | – | – | –
2 | O=c1c2ccccc2[se]n1-c1ccccc1 [ebselen] | dose-dependently reduces | – | – | 77±8 | 62±7 | – | – | – | – | – | 88.8±11 | 67.6±7.2 | dose-dependently reduces
